# Source: US4950650A, “Novel arginine vasopressin-binding peptides” (University of Florida, priority 1988, dated 1990)
# Where no end group is shown, it is not given here.
# Legend:
# AVP = AVP (Homo sapiens, UniProt P01185); assay: Solid matrix binding of 3H-AVP to immobilized AVP-binding peptide; conditions: 3H-AVP binding to peptide coupled to a solid matrix, room temperature 1 hr; read-out: apparent KD
# Protocol: FIG. 1--Specific binding of ^3 H-AVP to AVP-binding peptide […] AVP-binding peptide (200 μl of a 2 mg/ml solution) was bound overnight at 4° C. onto 96-well Immulon plates (Dynatech, Alexandria, Va.). Plates were washed three times with phosphate-buffered saline containing 5% BSA and 0.1% TWEEN™ 20 (binding buffer). Remaining binding sites were bound by incubating plates at room temperature with 20 μl binding buffer/well for 2 hr. After extensive washing, cold AVP (10 μM) was added to the appropriate plates 20 min, prior to the addition of ^3 H-AVP. Solid matrix binding was carried out at room temperature for 1 hr. Plates were washed three times and counts were solubilized with 1 N NaOH. Counts were then placed in scintillation vials and counted on a beta-scintillation counter. Specific binding of ^3 H-AVP was the difference between the binding in the absence and presence of cold AVP.
# Evidence for such direct interaction is provided by the binding data of FIG. 1, where ^3 H-AVP bound to the peptide coupled to a solid matrix with an apparent KD of approximately 50 nM. The binding was inhibited by excess cold AVP. We conclude that the peptide blocks AVP function through direct binding to AVP.
# [1] = system: AVP receptor on splenic lymphocyte; assay: Binding of 3H-AVP to receptor on splenic lymphocyte membranes; design: species or system mouse; conditions: for DPM (Mean ± SD): 300 nM 3H-AVP
# Protocol: Membranes were prepared as previously described (Torres and Johnson [1988] supra). Freshly dissociated spleen cells were incubated on plastic at 37° C. for 1 hr to remove adherent cells. Plates were washed and non-adherent cells were incubated for an additional hour at 37° C. Washed non-adherent cells were resuspended in 50 mM Tris-HCl buffer (pH 7.4) containing 10 mM EGTA and 10 μM phenylmethylsulfonylfluoride (PMSF), which generally lysed any red blood cells in the preparation. Additional red blood cell lysis was performed using 10 mM potassium bicarbonate buffer containing 16 mM ammonium chloride and 100 μM ethylenediaminetetraacetic acid (EDTA). Cells were washed twice and sonicated on ice using a Fisher Model 300 Sonicator (Fisher Scientific, Pittsburgh, Penna.) with microprobe. Preparations were monitored microscopically and were sonicated until greater than 95% cell rupture was achieved. Sonicated preparations were centrifuged at 1000×g at 4° C. to remove debris and large particles. Supernatants were then spun at 33,000 rpm (55,000×g) at 4° C. for 45 min in a Sorvall UTD65B Ultracentrifuge (T1270 rotor) to isolate membranes. Resulting membrane preparations were resuspended in 50 mM Tris-HCl (pH 7.4) containing 10 mM MgCL2 and 10 μM PMSF, and aliquots were stored at -70° C.
# Membranes (30 μg/ml) were incubated in a final volume of 200 μl with cold AVP and/or AVP-binding peptide for 20 min. prior to the addition of 300 nM ^3 H-AVP (specific activity, 70 Ci/mmol; New England Nuclear, Boston, Mass.). Binding was carried out at room temperature for 30 min., at which time samples were placed on ice to stop further binding. Membranes were washed through 0.45 μm filters (GVWP; Millipore, Bedford, Mass.) presoaked in 2% bovine serum albumin (BSA) with approximately 50× volume of ice cold reaction buffer (50 mM Tris-HCl, pH 7.4, 10 mM MgCl2, 2% BSA, 10 μM PMSF). Filters were then placed in scintillation vials and radioactivity was counted on a beta-scintillation counter.
# [2] = system: PA helper signal for IFN production; assay: Pressinoic acid (PA) help in IFN production in helper cell depleted spleen cell cultures; assay type: cell-based, mouse
compound,measurement,setting,value
TMKVLTGSP [AVP-binding peptide],Kd,AVP,~50 nM
"NC(=O)CC[C@@H]1NC(=O)[C@H](Cc2ccccc2)NC(=O)[C@H](Cc2ccc(O)cc2)NC(=O)[C@@H](N)CSSC[C@@H](C(=O)N2CCC[C@H]2C(=O)N[C@@H](CCCN=C(N)N)C(=O)NCC(N)=O)NC(=O)[C@H](CC(N)=O)NC1=O [AVP, Arginine vasopressin]",effect on binding of 300 nM 3H-AVP to lymphocyte receptors,[1]; cold AVP as competitor,did compete and block
same,DPM (Mean ± SD),"[1]; competitor 0.1 μM, none = 4,965 ± 226","5,265 ± 476 DPM"
same,DPM (Mean ± SD),[1]; competitor 1.0 μM,"4,209 ± 150 DPM"
same,DPM (Mean ± SD),[1]; competitor 10.0 μM,"3,621 ± 347 DPM"
same,DPM (Mean ± SD),[1]; competitor 100.0 μM,"3,577 ± 167 DPM"
pressinoic acid [PA],IFN,"[2]; Table 4, PA (10) (nm), no binding peptide",105 ± 21 U/ml
same,IFN,"[2]; Table 5, PA 3 nM, no complex",< 3 U/ml
same,IFN,"[2]; Table 5, PA 10 nM, no complex",185 ± 21 U/ml
same,IFN,"[2]; Table 5, PA 30 nM, no complex",250 ± 71 U/ml
